Assay [1] concerns the target Rhodesain (Trypanosoma brucei rhodesiense) (UniProt Q95PM0). Description: Inhibition of Trypanosoma brucei rhodesain assessed as combinational index measured at fraction affected value of 0.30 in presence of curcumin using Cbz-Phe-Arg-AMC as substrate incubated for 30 mins by fluorescence based assay.
The target is the same in assay [2]. The assay is described as follows: Inhibition of Trypanosoma brucei rhodesain assessed as combinational index measured at fraction affected value of 0.20 in presence of curcumin using Cbz-Phe-Arg-AMC as substrate incubated for 30 mins by fluorescence based assay.
Assay [3] shares this target. Description: Inhibition of Trypanosoma brucei rhodesain assessed as combinational index measured at fraction affected value of 0.90 in presence of curcumin using Cbz-Phe-Arg-AMC as substrate incubated for 30 mins by fluorescence based assay.
Assay [4] shares this target. Description: Inhibition of Trypanosoma brucei rhodesain assessed as combinational index measured at fraction affected value of 0.99 in presence of curcumin using Cbz-Phe-Arg-AMC as substrate incubated for 30 mins by fluorescence based assay.
The target is the same in assay [5]. Description: Inhibition of Trypanosoma brucei rhodesain assessed as combinational index measured at fraction affected value of 0.50 in presence of curcumin using Cbz-Phe-Arg-AMC as substrate incubated for 30 mins by fluorescence based assay.
Assay [6] has the same target. Description: Inhibition of Trypanosoma brucei rhodesain assessed as combinational index measured at fraction affected value of 0.60 in presence of curcumin using Cbz-Phe-Arg-AMC as substrate incubated for 30 mins by fluorescence based assay.
Assay [7] has as its system Trypanosoma brucei brucei. Description: Antitrypanosomal activity against blood stage form of Trypanosoma brucei brucei 449 incubated for 24 hrs by ATPlite assay. The conditions noted are these: Trypanosoma brucei, 449, 24 h. It is filed as functional, organism-based.
For assay [8], the target named is Rhodesain (Trypanosoma brucei rhodesiense) (UniProt Q95PM0). The assay is described as follows: Inhibition of Trypanosoma brucei rhodesain assessed as combinational index measured at fraction affected value of 0.10 in presence of curcumin using Cbz-Phe-Arg-AMC as substrate incubated for 30 mins by fluorescence based assay.
In assay [9] the test system is Trypanosoma brucei brucei. The assay is described as follows: Antitrypanosomal activity against blood stage form of Trypanosoma brucei brucei 449 in presence of curcumin incubated for 24 hrs by ATPlite assay. Type of assay: functional, organism-based. To be noted: Trypanosoma brucei, 449, 24 h.
Assay [10] concerns the target Rhodesain (Trypanosoma brucei rhodesiense) (UniProt Q95PM0). The assay is described as follows: Inhibition of Trypanosoma brucei rhodesain assessed as combinational index measured at fraction affected value of 0.40 in presence of curcumin using Cbz-Phe-Arg-AMC as substrate incubated for 30 mins by fluorescence based assay.
Assay [11] has the same target. Description: Inhibition of Trypanosoma brucei rhodesain using increasing concentration of Cbz-Phe-Arg-AMC as substrate incubated for 30 mins by fluorometric assay.
A further assay addresses Rhodesain (Trypanosoma brucei rhodesiense, UniProt Q95PM0). Description: Inhibition of Trypanosoma brucei rhodesain in presence of curcumin using Cbz-Phe-Arg-AMC as substrate incubated for 30 mins by fluorometric assay.
The target in assay [12] is Rhodesain (Trypanosoma brucei rhodesiense) (UniProt Q95PM0). The assay is described as follows: Inhibition of Trypanosoma brucei rhodesain assessed as combinational index measured at fraction affected value of 0.80 in presence of curcumin using Cbz-Phe-Arg-AMC as substrate incubated for 30 mins by fluorescence based assay.
The target is the same in assay [13]. The assay is described as follows: Inhibition of Trypanosoma brucei rhodesain assessed as combinational index measured at fraction affected value of 0.70 in presence of curcumin using Cbz-Phe-Arg-AMC as substrate incubated for 30 mins by fluorescence based assay.

Each structure is given as a SMILES string. Calls of active or inactive are those of the source. The calls are words filed in the database; no cut-off is given here.

Rhodesain (Trypanosoma brucei rhodesiense), sequence (Q95PM0 1-450): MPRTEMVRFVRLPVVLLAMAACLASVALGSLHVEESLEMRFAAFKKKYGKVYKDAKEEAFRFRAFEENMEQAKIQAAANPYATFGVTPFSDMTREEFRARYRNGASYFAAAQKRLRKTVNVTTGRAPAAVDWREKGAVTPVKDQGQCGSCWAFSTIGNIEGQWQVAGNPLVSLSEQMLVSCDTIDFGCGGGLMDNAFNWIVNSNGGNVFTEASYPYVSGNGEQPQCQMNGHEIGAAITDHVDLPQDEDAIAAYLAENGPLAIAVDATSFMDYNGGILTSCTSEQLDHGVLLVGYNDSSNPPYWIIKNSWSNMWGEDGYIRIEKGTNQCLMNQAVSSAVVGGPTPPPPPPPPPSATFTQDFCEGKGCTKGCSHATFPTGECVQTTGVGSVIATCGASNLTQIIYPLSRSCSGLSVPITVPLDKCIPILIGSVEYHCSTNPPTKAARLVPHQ
Rhodesain, sequence (Q95PM0 whole entry): as the sequence (Q95PM0 1-450) above

For the compound `CC(=O)/C=C/[C@H](CCc1ccccc1)NC(=O)[C@H](Cc1ccccc1)NC(=O)OCc1ccccc1`, the CI in assay [1] amounted to 1.07; in [2] it was 1.16; in assay [3], 0.686; in assay [4], 0.453; in assay [5], 0.941; in [6], 0.886. For the same compound, the CI stood at 1.32 in assay [8], 1 in assay [10], 0.768 in assay [12] and 0.83 in assay [13]. Also, the IC50 in assay [7] was 2.33 µM; in assay [9] it was 4.64 µM; on Rhodesain it was 3.05 µM. For the same compound, in assay [11], the inhibition entry is “Active”.
For the compound `COc1cc(/C=C/C(=O)CC(=O)/C=C/c2ccc(O)c(OC)c2)ccc1O` [CURCUMIN], the IC50 in assay [7] worked out at 3.12 µM. For the same compound, the inhibition result in [11] was “inactive”.

(Values after ChEMBL document CHEMBL4613296 (ACS Med Chem Lett, 2020).)
